The record followed here is ChEMBL document CHEMBL5244230, “Artemisinin-derived hybrids and their anticancer activity” (Eur J Med Chem, 2020).

The subject of one experiment is DLD-1. Nature of the experiment: Cytotoxicity against human DLD-1 cells assessed as cell growth inhibition measured after 48 hrs by MTT assay. The experiment is classed as functional.
A further experiment concerns A 172. Nature of the experiment: Cytotoxicity against human A-172 cells assessed as cell growth inhibition measured after 48 hrs by MTT assay. The experiment is classed as functional. (Tetrazolium dyes change colour on reduction, which living cells bring about.)
Experiment [1] can be described thus: Cytotoxicity against human U87 cells assessed as cell growth inhibition measured after 48 hrs by MTT assay. The experiment is classed as functional, U-87MG ATCC. Particulars: U-87 MG.
A further experiment has as its system SiHa. Nature of the experiment: Cytotoxicity against human SiHa cells assessed as cell growth inhibition measured after 48 hrs by MTT assay. The class given is functional.
Another experiment has as its system B16. Nature of the experiment: Cytotoxicity against mouse B16 cells assessed as cell growth inhibition measured after 48 hrs by MTT assay. The class given is functional.
The subject of experiment [2] is HeLa. Nature of the experiment: Cytotoxicity against human HeLa cells assessed as cell growth inhibition measured after 48 hrs by MTT assay. The class given is functional.
The next experiment concerns HT-29. Nature of the experiment: Antiproliferative activity against human HT-29 cells assessed as reduction in cell viability measured for 72 hrs by MTT assay. The settings on record: HT-29, 72 h. The experiment is classed as functional, cell-based.
A further experiment relates to A549. Nature of the experiment: Antiproliferative activity against human A549 cells assessed as reduction in cell viability measured for 72 hrs by MTT assay. Particulars: A549, 72 h. The class given is functional, cell-based.
Experiment [3] deals with HeLa. Nature of the experiment: Antiproliferative activity against human HeLa cells assessed as reduction in cell viability measured for 72 hrs by MTT assay. The class given is functional, cell-based.
The test system of the next experiment is NCI-H460. Nature of the experiment: Antiproliferative activity against human NCI-H460 cells assessed as reduction in cell viability measured for 72 hrs by MTT assay. The experiment is classed as functional, cell-based. The settings on record: NCI-H460, 72 h.
The subject of another experiment is MDA-MB-231. Nature of the experiment: Antiproliferative activity against human MDA-MB-231 cells assessed as reduction in cell viability measured for 72 hrs by MTT assay. The experiment is classed as functional, cell-based. Particulars: MDA-MB-231, 72 h.

pIC50: −log10 of the molar value.

Regarding `C[C@@H]1[C@@H](n2cc(-c3ccccc3)nn2)O[C@@H]2O[C@@]3(C)CC[C@H]4[C@H](C)CC[C@@H]1[C@@]24OO3`, the 50% growth inhibitory concentration (GI50) (with DLD-1; in the experiment with A 172; in experiment [1]; in the experiment with SiHa; with B16; in the experiment on HeLa [2]) was 30 nM in each case.

With `COc1ccc(-c2cn([C@@H]3O[C@@H]4O[C@@]5(C)CC[C@H]6[C@H](C)CC[C@@H]([C@H]3C)[C@@]46OO5)nn2)cc1`, the GI50 (with DLD-1; in the experiment on A 172; in experiment [1]; with SiHa; in the experiment on B16; with HeLa [2]) was 50 nM throughout.

Take `CCCCCc1ccc(-c2cn([C@@H]3O[C@@H]4O[C@@]5(C)CC[C@H]6[C@H](C)CC[C@@H]([C@H]3C)[C@@]46OO5)nn2)cc1`: the GI50 (in the experiment on DLD-1; in the experiment on A 172; in experiment [1]; in the experiment with SiHa; in the experiment with B16; in the experiment on HeLa [2]) was 50 nM throughout.

As to `C[C@H]1[C@H](n2cc(-c3ccccc3)nn2)O[C@@H]2O[C@@]3(C)CC[C@H]4[C@H](C)CC[C@@H]1[C@@]24OO3`, the concentration for 50% growth inhibition (GI50) (with DLD-1; with A 172; in [1]; with SiHa; in the experiment with B16; in the experiment on HeLa [2]) was 50 nM each time.

With `C[C@H]1[C@H](n2cc(-c3cc(F)cc(F)c3)nn2)O[C@@H]2O[C@@]3(C)CC[C@H]4[C@H](C)CC[C@@H]1[C@@]24OO3`, the 50% growth inhibitory concentration (GI50) (in the experiment with DLD-1; with A 172; in experiment [1]; in the experiment on SiHa; in the experiment on B16; in the experiment with HeLa [2]) was 50 nM throughout.

Take `Cc1ccc(-c2cn(C3O[C@@H]4O[C@@]5(C)CC[C@H]6[C@H](C)CC[C@@H]([C@H]3C)[C@@]46OO5)nn2)cc1` (stereo not given in full): the 50% growth inhibitory concentration (GI50) (in the experiment with DLD-1; with A 172; in experiment [1]; with SiHa; with B16; in the experiment with HeLa [2]) was 50 nM each time.

On to `C[C@@H]1CC[C@H]2[C@@H](C)C(n3cc(-c4ccc(F)cc4)nn3)O[C@@H]3O[C@@]4(C)CC[C@@H]1[C@]32OO4` (stereo not given in full), for which the concentration for 50% growth inhibition (GI50) (in the experiment with DLD-1; with A 172; in experiment [1]; in the experiment on SiHa; in the experiment with B16; with HeLa [2]) was 50 nM throughout.

As for `C[C@H]1[C@H](n2cc(-c3ccccc3C(F)(F)F)nn2)O[C@@H]2O[C@@]3(C)CC[C@H]4[C@H](C)CC[C@@H]1[C@@]24OO3`, the GI50 (with DLD-1; with A 172; in experiment [1]; in the experiment with SiHa; with B16; in the experiment on HeLa [2]) was 50 nM throughout.

For the compound `C[C@H]1[C@@H](NC(=O)COCc2ccc(/C=C/C(=O)c3ccc(Cl)cc3)cc2)O[C@@H]2O[C@@]3(C)CC[C@H]4[C@H](C)CC[C@@H]1[C@@]24OO3`, the negative-log IC50 (pIC50) with HT-29, in the experiment with A549, in the experiment on HeLa [3], in the experiment on NCI-H460 and in the experiment with MDA-MB-231 was 5.77 in each case.

As to `COc1cccc(/C=C/C(=O)c2ccc(COCC(=O)N[C@@H]3O[C@@H]4O[C@@]5(C)CC[C@H]6[C@H](C)CC[C@@H]([C@H]3C)[C@@]46OO5)cc2)c1`, the negative-log IC50 (pIC50) in the experiment on HT-29, in the experiment with A549, in the experiment with HeLa [3], in the experiment on NCI-H460 and in the experiment with MDA-MB-231 was 7.00 in each case.

For `C[C@H]1[C@@H](NC(=O)COCc2ccc(/C=C/C(=O)c3ccccc3)cc2)O[C@@H]2O[C@@]3(C)CC[C@H]4[C@H](C)CC[C@@H]1[C@@]24OO3`, the pIC50 with HT-29, with A549, with HeLa [3], in the experiment with NCI-H460 and with MDA-MB-231 was 5.77 in each case.

Turning to `C[C@H]1[C@H](NC(=O)COCc2ccc(C(=O)/C=C/c3c(Cl)cccc3Cl)cc2)O[C@@H]2O[C@@]3(C)CC[C@H]4[C@H](C)CC[C@@H]1[C@@]24OO3`, the negative-log IC50 (pIC50) in the experiment on HT-29, in the experiment with A549, in the experiment on HeLa [3], in the experiment on NCI-H460 and in the experiment on MDA-MB-231 was 7.00 throughout.

With `C[C@H]1[C@@H](NC(=O)COCc2ccc(/C=C/C(=O)c3ccc(F)cc3)cc2)O[C@@H]2O[C@@]3(C)CC[C@H]4[C@H](C)CC[C@@H]1[C@@]24OO3`, the pIC50 in the experiment with HT-29, in the experiment with A549, with HeLa [3], in the experiment on NCI-H460 and in the experiment on MDA-MB-231 was 5.77 throughout.

Take `Cc1ccc(-c2cn([C@H]3O[C@@H]4O[C@@]5(C)CC[C@H]6[C@H](C)CC[C@@H]([C@@H]3C)[C@@]46OO5)nn2)cc1`: the 50% growth inhibitory concentration (GI50) (with DLD-1; with A 172; in experiment [1]; with SiHa; in the experiment with B16; in the experiment with HeLa [2]) was 30 nM throughout.

For the compound `C[C@H]1[C@@H](NC(=O)COCc2ccc(/C=C/C(=O)c3ccc(Cl)c(Cl)c3)cc2)O[C@@H]2O[C@@]3(C)CC[C@H]4[C@H](C)CC[C@@H]1[C@@]24OO3`, the pIC50 in the experiment on HT-29, in the experiment on A549, with HeLa [3], in the experiment with NCI-H460 and in the experiment on MDA-MB-231 was 5.77 each time.

On to `C[C@H]1[C@@H](NC(=O)COCc2ccc(/C=C/C(=O)c3cccc(Cl)c3)cc2)O[C@@H]2O[C@@]3(C)CC[C@H]4[C@H](C)CC[C@@H]1[C@@]24OO3`, for which the pIC50 in the experiment with HT-29, in the experiment on A549, in the experiment with HeLa [3], with NCI-H460 and in the experiment with MDA-MB-231 was 5.77 throughout.

Regarding `C[C@@H]1CC[C@H]2[C@@H](C)C(n3cc(-c4cccc(Cl)c4)nn3)O[C@@H]3O[C@@]4(C)CC[C@@H]1[C@]32OO4` (stereo not given in full), the concentration for 50% growth inhibition (GI50) (with DLD-1; in the experiment on A 172; in experiment [1]; with SiHa; in the experiment on B16; in the experiment with HeLa [2]) was 50 nM in each case.

In the case of `C[C@H]1[C@@H](NC(=O)COCc2ccc(/C=C/C(=O)c3ccc(C(F)(F)F)cc3)cc2)O[C@@H]2O[C@@]3(C)CC[C@H]4[C@H](C)CC[C@@H]1[C@@]24OO3`, the pIC50 with HT-29, in the experiment with A549, in the experiment with HeLa [3], in the experiment on NCI-H460 and with MDA-MB-231 was 5.77 each time.

For `COc1cccc(C(=O)/C=C/c2ccc(COCC(=O)N[C@H]3O[C@@H]4O[C@@]5(C)CC[C@H]6[C@H](C)CC[C@@H]([C@H]3C)[C@@]46OO5)cc2)c1`, the pIC50 in the experiment on HT-29, in the experiment with A549, with HeLa [3], with NCI-H460 and in the experiment on MDA-MB-231 was 5.77 throughout.

The term GI50 denotes the concentration that inhibits growth by half. As usually defined, the pIC50 is the negative decadic logarithm of the IC50, by convention in mol/L.
